What all share (format): cell-based
The target of one test is T1, hNaV1.2 (Homo sapiens, UniProt Q99250).
T1 construct: host or cells: HEK293
Kind of test: Automated whole-cell patch-clamp (QPatch 16X), hNaV1.2. The following applies: for IC50: HEK293 cells expressing hNaV1.2 + β1 subunit, QPatch 16X, holding −80 mV, step to 0 mV, peptide incubated 2 min, 0.1% BSA, mean, SEM and n (2-7). The method, then:
(§1) Human embryonic kidney 293 (HEK293) cells stably expressing recombinant hNaV1.2, hNaV1.3 and hNaV1.7 and the β1 auxiliary subunit (Scottish Biomedical Drug Discovery, Glasgow, UK) were cultured in Minimal Essential medium (MEM) (Sigma-Aldrich, MO, United States) supplemented with 10% v/v FBS-New Zealand origin (Assay Matrix), 2 mM L-glutamine and selection antibiotics as per manufacturer’s recommendation. The HEK293 cells heterologously expressing mNaV1.7 and F813G-mNaV1.7 were generously provided by Prof Irina Vetter and were cultured in Minimal Essential medium (MEM) (Sigma-Aldrich, MO, United States) supplemented with 10% v/v FBS-New Zealand origin (Assay Matrix), 2 mM L-glutamine and hygromycin 100 μg/mL.
(§2) NaV channel currents from HEK293 cells stably expressing NaV subtypes and the β1 auxiliary subunit were recorded using an automated whole-cell patch clamp system QPatch 16X (Sophion Bioscience A/S, Ballerup, Denmark). As per the manufacturer’s guidelines, the cells were cultured for 48 h to achieve ∼80% confluency, detached using Detachin (Genlantis) and resuspended to 5 × 10^6 cells/mL in serum free media [CHO-cell SFM (Life Technologies), 25 mM HEPES and 100 U/mL penicillin/streptomycin]. The extracellular solution comprised (in mM) 1 CaCl2, 1 MgCl2, 5 HEPES, 3 KCl, 140 NaCl and 20 TEA-Cl, with the pH adjusted to 7.3 with NaOH. The intracellular solution comprised (in mM) 140 CsF, 1 EGTA, 5 CsOH, 10 HEPES and 10 NaCl, with the pH adjusted to 7.3 with CsOH. The osmolarity of both solutions were adjusted to 320 mOsm with sucrose. Compounds were prepared in extracellular solution containing 0.1% bovine serum albumin (Sigma-Aldrich). To obtain the dose-response curves, cells were maintained at a holding potential −80 mV and Na^+ currents were elicited by […] voltage steps to 0 mV from a −120 mV conditioning pulse applied for […]. Increasing concentrations of the peptide were incubated with the cells at the holding potential for 2 min before the voltage protocol was applied.
(§3) The experimental data were analysed using QPatch Assay software v5.6.4 and GraphPad Prism 7.0 using a four-parameter Hill equation [Y = Bottom + (Top—Bottom)/(1 + 10^(Log IC50—X)* Hillslope)] to fit concentration response curves by non-linear regression analysis and Student’s t-test. Data are presented as means ± standard error of mean (SEM) with number of independent experiments stated and p < 0.05 is considered statistically significant. Statistically insignificant shift in the activity is denoted by “little” while small but statistically significant shift in the activity is denoted by “slight” throughout the manuscript.
For orientation: Patch clamp records ionic current or voltage across a cell membrane.

In a further test the target is T2, hNaV1.3 (Homo sapiens, UniProt Q9NY46).
T2 construct: host or cells: HEK293
T2 sequence (Q9NY46 whole entry): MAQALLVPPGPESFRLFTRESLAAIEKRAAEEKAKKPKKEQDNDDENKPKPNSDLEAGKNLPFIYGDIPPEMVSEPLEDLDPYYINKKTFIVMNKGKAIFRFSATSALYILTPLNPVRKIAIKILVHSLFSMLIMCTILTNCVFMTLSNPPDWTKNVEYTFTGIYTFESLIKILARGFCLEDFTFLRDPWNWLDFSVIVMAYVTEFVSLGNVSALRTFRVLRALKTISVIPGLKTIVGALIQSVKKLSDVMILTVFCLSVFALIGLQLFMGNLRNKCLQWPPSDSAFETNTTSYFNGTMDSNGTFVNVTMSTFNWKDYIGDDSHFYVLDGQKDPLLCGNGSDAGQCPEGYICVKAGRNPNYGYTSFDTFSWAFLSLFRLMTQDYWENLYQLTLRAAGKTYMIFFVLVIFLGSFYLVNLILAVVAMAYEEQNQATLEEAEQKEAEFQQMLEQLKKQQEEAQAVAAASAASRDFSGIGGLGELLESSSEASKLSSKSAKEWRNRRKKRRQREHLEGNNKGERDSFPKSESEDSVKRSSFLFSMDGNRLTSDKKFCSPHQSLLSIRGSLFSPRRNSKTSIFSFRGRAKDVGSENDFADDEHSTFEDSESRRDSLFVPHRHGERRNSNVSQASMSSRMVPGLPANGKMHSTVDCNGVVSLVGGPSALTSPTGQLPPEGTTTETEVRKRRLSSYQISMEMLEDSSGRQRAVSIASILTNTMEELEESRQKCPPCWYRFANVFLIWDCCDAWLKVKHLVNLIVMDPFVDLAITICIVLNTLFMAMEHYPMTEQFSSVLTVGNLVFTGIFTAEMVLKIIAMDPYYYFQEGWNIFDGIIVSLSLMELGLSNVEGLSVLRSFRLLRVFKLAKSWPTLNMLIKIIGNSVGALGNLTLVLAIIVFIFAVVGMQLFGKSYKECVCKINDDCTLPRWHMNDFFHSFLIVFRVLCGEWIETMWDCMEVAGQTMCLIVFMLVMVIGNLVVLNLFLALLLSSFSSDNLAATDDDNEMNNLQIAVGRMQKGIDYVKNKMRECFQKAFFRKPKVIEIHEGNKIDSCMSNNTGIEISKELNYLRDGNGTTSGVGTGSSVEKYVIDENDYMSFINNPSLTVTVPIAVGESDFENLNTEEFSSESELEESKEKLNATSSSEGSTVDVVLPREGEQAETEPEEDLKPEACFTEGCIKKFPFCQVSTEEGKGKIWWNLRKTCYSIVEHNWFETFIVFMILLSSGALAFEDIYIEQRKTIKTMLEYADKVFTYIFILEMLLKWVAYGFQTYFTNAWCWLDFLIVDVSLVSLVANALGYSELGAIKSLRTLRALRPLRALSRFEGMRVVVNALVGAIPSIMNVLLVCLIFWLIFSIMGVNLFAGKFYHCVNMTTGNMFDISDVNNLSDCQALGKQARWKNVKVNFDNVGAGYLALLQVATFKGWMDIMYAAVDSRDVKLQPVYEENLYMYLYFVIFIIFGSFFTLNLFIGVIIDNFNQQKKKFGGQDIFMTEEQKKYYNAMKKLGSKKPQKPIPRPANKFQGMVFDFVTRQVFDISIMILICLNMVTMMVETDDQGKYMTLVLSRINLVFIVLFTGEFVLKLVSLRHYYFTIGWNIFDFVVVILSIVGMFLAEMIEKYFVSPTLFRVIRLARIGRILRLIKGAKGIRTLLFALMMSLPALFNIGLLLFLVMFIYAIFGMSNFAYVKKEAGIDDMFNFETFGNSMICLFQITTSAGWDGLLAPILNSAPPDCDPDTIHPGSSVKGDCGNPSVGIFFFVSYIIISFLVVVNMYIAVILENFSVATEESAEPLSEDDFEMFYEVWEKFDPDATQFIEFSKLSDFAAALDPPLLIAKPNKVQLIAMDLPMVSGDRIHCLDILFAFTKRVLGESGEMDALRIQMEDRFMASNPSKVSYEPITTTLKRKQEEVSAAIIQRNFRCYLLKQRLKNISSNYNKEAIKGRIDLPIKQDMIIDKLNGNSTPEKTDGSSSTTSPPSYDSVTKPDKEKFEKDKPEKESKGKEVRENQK
T2 sequence (Q07699 19-218, further chain): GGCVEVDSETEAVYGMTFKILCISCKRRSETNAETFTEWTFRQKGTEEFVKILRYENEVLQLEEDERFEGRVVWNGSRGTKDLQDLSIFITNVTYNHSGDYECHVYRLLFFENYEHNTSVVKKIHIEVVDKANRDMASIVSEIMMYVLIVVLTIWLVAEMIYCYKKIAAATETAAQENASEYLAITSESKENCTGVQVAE
Kind of test: Automated whole-cell patch-clamp (QPatch 16X), hNaV1.3. Conditions: HEK293 cells expressing hNaV1.3 + β1 subunit; QPatch 16X; holding −80 mV, step to 0 mV; peptide incubated 2 min; 0.1% BSA; mean, SEM and n (3-12). The method, then: as §1, §2, §3

Another test concerns the target T3, hNaV1.7 (Homo sapiens, UniProt Q15858).
T3 construct: host or cells: HEK293
Nature of the test: Automated whole-cell patch-clamp (QPatch 16X), hNaV1.7. The following applies: for IC50: HEK293 cells expressing hNaV1.7 + β1 subunit, QPatch 16X, holding −80 mV, step to 0 mV, peptide incubated 2 min, 0.1% BSA, mean, SEM and n (3-9). The method, then:
as §1, §2, §3

Bridge positions count the residues as written; N and C are the ends. Peptide text beside a SMILES is read from it. Some results are limits rather than exact numbers.

T3 sequence (Q15858 whole entry): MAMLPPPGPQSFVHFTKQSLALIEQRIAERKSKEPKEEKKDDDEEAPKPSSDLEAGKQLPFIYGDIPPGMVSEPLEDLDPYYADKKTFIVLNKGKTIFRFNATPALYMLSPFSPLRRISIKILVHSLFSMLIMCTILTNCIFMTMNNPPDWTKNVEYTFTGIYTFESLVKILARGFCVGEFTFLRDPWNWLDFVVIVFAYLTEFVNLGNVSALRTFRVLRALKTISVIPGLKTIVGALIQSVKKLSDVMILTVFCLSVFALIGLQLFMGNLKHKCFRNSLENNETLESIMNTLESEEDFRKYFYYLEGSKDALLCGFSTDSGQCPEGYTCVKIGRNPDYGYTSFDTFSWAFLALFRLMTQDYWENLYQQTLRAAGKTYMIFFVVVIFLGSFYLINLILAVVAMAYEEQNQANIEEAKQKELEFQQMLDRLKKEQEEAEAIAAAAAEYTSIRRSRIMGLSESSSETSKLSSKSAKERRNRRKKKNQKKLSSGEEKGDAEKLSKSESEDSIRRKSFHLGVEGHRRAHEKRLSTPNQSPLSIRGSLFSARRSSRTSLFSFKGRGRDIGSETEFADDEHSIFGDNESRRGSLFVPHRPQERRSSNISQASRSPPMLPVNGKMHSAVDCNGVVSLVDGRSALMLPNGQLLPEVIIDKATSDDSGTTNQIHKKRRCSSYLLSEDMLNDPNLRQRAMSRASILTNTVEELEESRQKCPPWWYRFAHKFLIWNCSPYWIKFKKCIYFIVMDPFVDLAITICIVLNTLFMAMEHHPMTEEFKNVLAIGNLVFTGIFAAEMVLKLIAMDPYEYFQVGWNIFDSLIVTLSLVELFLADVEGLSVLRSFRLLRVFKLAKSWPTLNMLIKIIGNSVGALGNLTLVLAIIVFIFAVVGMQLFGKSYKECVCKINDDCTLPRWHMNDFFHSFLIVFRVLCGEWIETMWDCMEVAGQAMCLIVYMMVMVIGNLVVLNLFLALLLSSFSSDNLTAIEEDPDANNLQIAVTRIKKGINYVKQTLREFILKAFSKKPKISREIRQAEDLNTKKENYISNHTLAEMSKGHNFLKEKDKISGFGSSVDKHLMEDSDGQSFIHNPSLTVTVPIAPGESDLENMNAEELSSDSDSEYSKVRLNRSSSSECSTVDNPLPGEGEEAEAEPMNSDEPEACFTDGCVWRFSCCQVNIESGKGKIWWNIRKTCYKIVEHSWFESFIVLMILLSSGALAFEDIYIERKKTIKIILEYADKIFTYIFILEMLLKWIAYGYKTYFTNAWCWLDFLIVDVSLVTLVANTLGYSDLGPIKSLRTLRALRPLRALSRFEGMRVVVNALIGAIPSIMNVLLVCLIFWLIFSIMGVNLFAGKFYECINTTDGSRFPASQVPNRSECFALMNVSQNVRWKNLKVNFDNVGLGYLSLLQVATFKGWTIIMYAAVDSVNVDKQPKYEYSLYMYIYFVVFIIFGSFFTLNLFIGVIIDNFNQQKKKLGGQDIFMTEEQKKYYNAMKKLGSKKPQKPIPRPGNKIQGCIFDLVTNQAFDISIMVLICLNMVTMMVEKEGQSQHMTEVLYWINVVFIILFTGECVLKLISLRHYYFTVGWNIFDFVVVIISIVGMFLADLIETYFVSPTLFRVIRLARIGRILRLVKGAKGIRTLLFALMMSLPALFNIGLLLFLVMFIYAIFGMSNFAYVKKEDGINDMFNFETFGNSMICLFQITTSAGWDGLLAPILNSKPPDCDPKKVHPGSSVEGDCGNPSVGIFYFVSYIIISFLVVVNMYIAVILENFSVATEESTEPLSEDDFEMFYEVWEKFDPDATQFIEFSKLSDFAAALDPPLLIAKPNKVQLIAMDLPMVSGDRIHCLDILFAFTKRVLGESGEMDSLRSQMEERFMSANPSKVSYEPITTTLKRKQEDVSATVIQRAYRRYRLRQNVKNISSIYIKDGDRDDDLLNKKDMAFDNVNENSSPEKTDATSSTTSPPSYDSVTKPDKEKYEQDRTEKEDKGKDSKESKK
T3 sequence (Q07699 19-218, further chain): as the sequence (Q07699 19-218, further chain) above

As for `CC(C)C[C@H](NC(=O)[C@H](CC(=O)O)NC(=O)[C@H](Cc1ccc(O)cc1)NC(=O)[C@H](CCCNC(=N)N)NC(=O)[C@@H]1CSSC[C@@H]2NC(=O)[C@H](CCCCN)NC(=O)[C@H](CC(N)=O)NC(=O)[C@H](CC(N)=O)NC(=O)[C@H](CC(N)=O)NC(=O)[C@@H]3CCCN3C(=O)[C@H](CC(=O)O)NC(=O)[C@@H]3CSSC[C@H](NC(=O)[C@H](C(C)C)NC(=O)[C@H](Cc4ccc(O)cc4)NC(=O)CNC(=O)[C@H](Cc4ccc(O)cc4)NC(=O)[C@H](CSSC[C@H](NC(=O)[C@H](CC(=O)O)NC(=O)CN)C(=O)N[C@@H](CC(C)C)C(=O)NCC(=O)N[C@@H](Cc4c[nH]c5ccccc45)C(=O)N[C@@H](Cc4ccccc4)C(=O)N[C@@H](CO)C(=O)NCC(=O)N3)NC2=O)C(=O)N[C@@H](Cc2c[nH]cn2)C(=O)N[C@@H](Cc2c[nH]c3ccccc23)C(=O)N[C@@H](CCCCN)C(=O)N[C@@H](Cc2ccc(O)cc2)C(=O)N2CCC[C@H]2C(=O)N[C@@H](Cc2c[nH]c3ccccc23)C(=O)N1)C(=O)O` [E18Y], the IC50 (as a rule, the concentration needed to halve the response being measured) at hNaV1.2 turned out to be 203 nM; on hNaV1.3, 300 nM; on hNaV1.7, 179 nM.

On to `CC(C)C[C@H](NC(=O)[C@H](CC(=O)O)NC(=O)[C@H](Cc1ccc(O)cc1)NC(=O)[C@H](CCCNC(=N)N)NC(=O)[C@@H]1CSSC[C@@H]2NC(=O)[C@H](CCCCN)NC(=O)[C@H](CC(N)=O)NC(=O)[C@H](CC(N)=O)NC(=O)[C@H](CC(N)=O)NC(=O)[C@@H]3CCCN3C(=O)[C@H](CC(=O)O)NC(=O)[C@@H]3CSSC[C@H](NC(=O)[C@H](C(C)C)NC(=O)[C@H](Cc4ccc(O)cc4)NC(=O)CNC(=O)[C@H](CCC(=O)O)NC(=O)[C@H](CSSC[C@H](NC(=O)[C@H](CC(=O)O)NC(=O)CN)C(=O)N[C@@H](CC(C)C)C(=O)NCC(=O)N[C@@H](Cc4c[nH]c5ccccc45)C(=O)N[C@@H](C)C(=O)N[C@@H](CO)C(=O)NCC(=O)N3)NC2=O)C(=O)N[C@@H](Cc2c[nH]cn2)C(=O)N[C@@H](Cc2c[nH]c3ccccc23)C(=O)N[C@@H](CCCCN)C(=O)N[C@@H](Cc2ccc(O)cc2)C(=O)N2CCC[C@H]2C(=O)N[C@@H](Cc2c[nH]c3ccccc23)C(=O)N1)C(=O)O` [F6A] (H-GDCLGWASGCDPNNNKCCEGYVCHWKYPWCRYDL-OH; disulfide 3-18, 10-23, 17-30 (inferred); N-terminus and C-terminus assumed), for which the IC50 at hNaV1.2, at hNaV1.3 and on hNaV1.7 was over 1000 nM throughout. At hNaV1.2 (relative to wild type rSsp1a), the “Loss (reduction) in potency vs rSsp1a at hNaV1.2” value is at least 10 fold. The “Loss (reduction) in potency vs rSsp1a at hNaV1.7” value at hNaV1.7 (relative to wild type rSsp1a) is at least 10 fold.

`CC(C)C[C@H](NC(=O)[C@H](CC(=O)O)NC(=O)[C@H](Cc1ccc(O)cc1)NC(=O)[C@H](CCCNC(=N)N)NC(=O)[C@@H]1CSSC[C@@H]2NC(=O)[C@H](CCCCN)NC(=O)[C@H](CC(N)=O)NC(=O)[C@H](CC(N)=O)NC(=O)[C@H](CC(N)=O)NC(=O)[C@@H]3CCCN3C(=O)[C@H](CC(=O)O)NC(=O)[C@@H]3CSSC[C@H](NC(=O)[C@H](C(C)C)NC(=O)[C@H](Cc4ccc(O)cc4)NC(=O)CNC(=O)[C@H](CCC(=O)O)NC(=O)[C@H](CSSC[C@H](NC(=O)[C@H](CC(=O)O)NC(=O)CN)C(=O)N[C@@H](CC(C)C)C(=O)N[C@@H](CCC(N)=O)C(=O)N[C@@H](Cc4c[nH]c5ccccc45)C(=O)N[C@@H](Cc4ccccc4)C(=O)N[C@@H](CO)C(=O)NCC(=O)N3)NC2=O)C(=O)N[C@@H](Cc2c[nH]cn2)C(=O)N[C@@H](Cc2c[nH]c3ccccc23)C(=O)N[C@@H](CCCCN)C(=O)N[C@@H](Cc2ccc(O)cc2)C(=O)N2CCC[C@H]2C(=O)N[C@@H](Cc2c[nH]c3ccccc23)C(=O)N1)C(=O)O` [G4Q]: the IC50 at hNaV1.2 came to 503 nM; at hNaV1.3, 999 nM; at hNaV1.7 it was 606 nM.

As for `CC(C)C[C@H](NC(=O)[C@H](CC(=O)O)NC(=O)[C@H](Cc1ccc(O)cc1)NC(=O)[C@H](CCCNC(=N)N)NC(=O)[C@@H]1CSSC[C@@H]2NC(=O)[C@H](CCCCN)NC(=O)[C@H](CC(N)=O)NC(=O)[C@H](CC(N)=O)NC(=O)[C@H](CC(N)=O)NC(=O)[C@@H]3CCCN3C(=O)[C@H](CC(=O)O)NC(=O)[C@@H]3CSSC[C@H](NC(=O)[C@H](C(C)C)NC(=O)[C@H](Cc4ccc(O)cc4)NC(=O)CNC(=O)[C@H](CCC(=O)O)NC(=O)[C@H](CSSC[C@H](NC(=O)[C@H](CC(=O)O)NC(=O)CN)C(=O)N[C@@H](CC(C)C)C(=O)N[C@@H](CCCNC(=N)N)C(=O)N[C@@H](Cc4c[nH]c5ccccc45)C(=O)N[C@@H](Cc4ccccc4)C(=O)N[C@@H](CO)C(=O)NCC(=O)N3)NC2=O)C(=O)N[C@@H](Cc2c[nH]cn2)C(=O)N[C@@H](Cc2c[nH]c3ccccc23)C(=O)N[C@@H](CCCCN)C(=O)N[C@@H](Cc2ccc(O)cc2)C(=O)N2CCC[C@H]2C(=O)N[C@@H](Cc2c[nH]c3ccccc23)C(=O)N1)C(=O)O` [G4R], the IC50 was 193 nM on hNaV1.2, 409 nM at hNaV1.3 and 201 nM at hNaV1.7.

For `CC(C)C[C@H](NC(=O)[C@H](CC(=O)O)NC(=O)[C@H](Cc1ccc(O)cc1)NC(=O)[C@H](CCCNC(=N)N)NC(=O)[C@@H]1CSSC[C@@H]2NC(=O)[C@H](CCCCN)NC(=O)[C@H](CC(N)=O)NC(=O)[C@H](CC(N)=O)NC(=O)[C@H](CC(N)=O)NC(=O)[C@@H]3CCCN3C(=O)[C@H](CC(=O)O)NC(=O)[C@@H]3CSSC[C@H](NC(=O)[C@H](C(C)C)NC(=O)[C@H](Cc4ccc(O)cc4)NC(=O)CNC(=O)[C@H](CCC(=O)O)NC(=O)[C@H](CSSC[C@H](NC(=O)[C@H](CC(=O)O)NC(=O)CN)C(=O)N[C@@H](CC(C)C)C(=O)NCC(=O)N[C@@H](Cc4c[nH]c5ccccc45)C(=O)N[C@@H](Cc4ccccc4)C(=O)N[C@@H](CO)C(=O)N[C@@H](CCCNC(=N)N)C(=O)N3)NC2=O)C(=O)N[C@@H](Cc2c[nH]cn2)C(=O)N[C@@H](Cc2c[nH]c3ccccc23)C(=O)N[C@@H](CCCCN)C(=O)N[C@@H](Cc2ccc(O)cc2)C(=O)N2CCC[C@H]2C(=O)N[C@@H](Cc2c[nH]c3ccccc23)C(=O)N1)C(=O)O` [G8R], the IC50 was found to be 117 nM at hNaV1.2, 415 nM at hNaV1.3 and 96 nM at hNaV1.7.

With `CC(C)C[C@H](NC(=O)[C@H](CC(=O)O)NC(=O)[C@H](Cc1ccc(O)cc1)NC(=O)[C@H](CCCNC(=N)N)NC(=O)[C@@H]1CSSC[C@@H]2NC(=O)[C@H](CCCCN)NC(=O)[C@H](CC(N)=O)NC(=O)[C@H](CC(N)=O)NC(=O)[C@H](CC(N)=O)NC(=O)[C@@H]3CCCN3C(=O)[C@H](CC(=O)O)NC(=O)[C@@H]3CSSC[C@H](NC(=O)[C@H](C(C)C)NC(=O)[C@H](Cc4ccc(O)cc4)NC(=O)CNC(=O)[C@H](CCC(=O)O)NC(=O)[C@H](CSSC[C@H](NC(=O)[C@H](CC(=O)O)NC(=O)CN)C(=O)N[C@@H](CC(C)C)C(=O)NCC(=O)N[C@@H](Cc4c[nH]c5ccccc45)C(=O)N[C@@H](Cc4ccccc4)C(=O)N[C@@H](CO)C(=O)NCC(=O)N3)NC2=O)C(=O)N2CCC[C@H]2C(=O)N[C@@H](Cc2c[nH]c3ccccc23)C(=O)N[C@@H](CCCCN)C(=O)N[C@@H](Cc2ccc(O)cc2)C(=O)N2CCC[C@H]2C(=O)N[C@@H](Cc2c[nH]c3ccccc23)C(=O)N1)C(=O)O` [H23P] (H-GDCLGWFSGCDPNNNKCCEGYVCPWKYPWCRYDL-OH; disulfide 3-18, 10-23, 17-30 (inferred); N-terminus and C-terminus assumed), the IC50 at hNaV1.2, on hNaV1.3 and on hNaV1.7 was over 3000 nM throughout.

The record behind these values is PMC10682951, “Structure-function and rational design of a spider toxin Ssp1a at human voltage-gated sodium channel subtypes” (Frontiers in Pharmacology, 2023).
